Several values for one entry are separate records, joined by “and”; a condition that tells them apart may be missing. Equal values may be shown once. Read-outs that look alike come from different tables or passages of the source.
How the values were obtained:
[1] = target: T1, Endothelial lipase (EL) (Homo sapiens, UniProt Q9Y5X9); experiment: Endothelial lipase (EL) enzymatic assay, fluorescent substrate A10070 in DMPG vesicles; type: biochemical; details: compound preincubated 30 min at 37° C
T1 construct: HT-1080 cells that were transformed using RAGE technology (Athersys) to overexpress endogenous EL; endogenous in cells; conditioned medium used
T1 sequence (Q9Y5X9 21-500): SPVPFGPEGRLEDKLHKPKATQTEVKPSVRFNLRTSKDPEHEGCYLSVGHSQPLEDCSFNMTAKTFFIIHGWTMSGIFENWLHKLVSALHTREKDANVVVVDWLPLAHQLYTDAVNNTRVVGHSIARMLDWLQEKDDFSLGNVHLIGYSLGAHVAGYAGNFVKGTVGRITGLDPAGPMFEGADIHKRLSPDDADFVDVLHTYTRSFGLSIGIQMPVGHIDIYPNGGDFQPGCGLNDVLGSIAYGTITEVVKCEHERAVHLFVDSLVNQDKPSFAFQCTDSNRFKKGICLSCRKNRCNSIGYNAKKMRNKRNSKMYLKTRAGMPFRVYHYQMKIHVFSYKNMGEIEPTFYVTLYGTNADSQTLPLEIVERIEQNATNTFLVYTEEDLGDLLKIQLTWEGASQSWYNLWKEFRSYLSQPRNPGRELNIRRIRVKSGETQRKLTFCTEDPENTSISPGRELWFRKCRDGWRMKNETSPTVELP
Outline: (§1)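 Compounds were preincubated with enzyme for 30 min at 37° C before FRET-substrate vesicles (A10070 in DMPG, 0.11 mole fraction) were added. Reaction rates were obtained from the 300–900 sec slope of fluorescence at 490/530 nm.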

[2] = target: T2, hepatic lipase (HL) (Homo sapiens, UniProt P11150); experiment: Hepatic lipase (HL) enzymatic assay, fluorescent substrate A10070 in DMPG vesicles; type: biochemical; details: compound preincubated 30 min at 37° C
T2 construct: made in house; host or cells: COS cells (conditioned medium, partially purified)
T2 sequence (P11150 23-499): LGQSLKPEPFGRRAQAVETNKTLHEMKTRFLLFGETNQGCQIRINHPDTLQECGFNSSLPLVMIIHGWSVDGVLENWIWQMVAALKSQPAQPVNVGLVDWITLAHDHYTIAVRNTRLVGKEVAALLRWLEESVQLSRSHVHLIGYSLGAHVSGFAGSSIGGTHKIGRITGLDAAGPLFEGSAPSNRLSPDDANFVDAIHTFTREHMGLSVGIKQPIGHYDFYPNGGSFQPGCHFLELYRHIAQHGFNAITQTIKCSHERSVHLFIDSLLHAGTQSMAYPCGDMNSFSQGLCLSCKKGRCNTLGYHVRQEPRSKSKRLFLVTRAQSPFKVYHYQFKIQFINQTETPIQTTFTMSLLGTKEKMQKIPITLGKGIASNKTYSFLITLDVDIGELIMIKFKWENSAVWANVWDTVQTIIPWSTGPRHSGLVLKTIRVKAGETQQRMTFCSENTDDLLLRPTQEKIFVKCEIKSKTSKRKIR
Outline: as §1

[3] = EL from conditioned media of HT-1080 cells, read-out: EL IC50
[4] = HL partially purified from conditioned media of COS cells, read-out: HL IC50

SMILES | IC50 [1, 3] [nM] | IC50 [2, 4] | IC50 ([1]; EL IC50, EL from conditioned media of HT-1080 cells) [nM] | IC50 ([2]; HL IC50, HL partially purified from conditioned media of COS cells) [nM]
NS(=O)(=O)NCc1nnc(C(c2nc3ccc(-c4ccc(C(=O)N5CCOCC5)c(Cl)c4)cc3s2)S(=O)(=O)Cc2ccccc2)o1 (stereo not shown) [Example 149, N-((5-((benzylsulfonyl)(6-(3-chloro-4-(4-morpholinylcarbonyl)phenyl)-1,3-benzothiazol-2-yl)methyl)-1,3,4-oxadiazol-2-yl)methyl)sulfamide] | < 10 | 121 nM |  | 
NS(=O)(=O)NCc1nnc(C(c2nc3ccc(-c4cc(F)nc(F)c4)cc3s2)S(=O)(=O)Cc2ccccc2)o1 (stereo not shown) [Example 145, N-((5-((benzylsulfonyl)(6-(2,6-difluoro-4-pyridinyl)-1,3-benzothiazol-2-yl)methyl)-1,3,4-oxadiazol-2-yl)methyl)sulfamide] | < 10 | 77 nM |  | 
COCc1ccc(-c2ccc3nc(C(c4nnc(CNS(N)(=O)=O)o4)S(=O)(=O)Cc4ccc(C(F)(F)F)cc4)sc3c2)cc1 (stereo not shown) [Example 236, N-{[5-({6-[4-(methoxymethyl)phenyl]-1,3-benzothiazol-2-yl}[4-(trifluoromethyl)phenyl]meth-anesulfonylmethyl)-1,3,4-oxadiazol-2-yl]methyl} aminosulfonamide] | 1 | 1 nM |  | 
CS(=O)(=O)C(c1nnc(C[C@@H]2NS(=O)(=O)N(C3CC3)C2=O)o1)c1nc2ccc(-c3ccccc3)cc2s1 (stereo partly shown) [Example 181] | 130 | 56 nM |  | 
CN(C)C(=O)c1ccc(-c2ccc3nc(C(c4nnc(CNS(N)(=O)=O)o4)S(=O)(=O)Cc4ccccc4)sc3c2)cc1Cl (stereo not shown) [Example 146, 4-(2-((benzylsulfonyl)(5-((sulfamoylamino)methyl)-1,3,4-oxadiazol-2-yl)methyl)-1,3-benzothiazol-6-yl)-2-chloro-N,N-dimethylbenzamide] | < 10 | 391 nM |  | 
Cn1ccc(-c2ccc3sc(C(c4nnc(CNS(N)(=O)=O)o4)S(C)(=O)=O)nc3c2)cc1=O (stereo not shown) [Example 245, N-[(5-{methanesulfonyl[5-(1-methyl-2-oxo-1,2-dihydropyridin-4-yl)-1,3-benzothiazol-2-yl]methyl}-1,3,4-oxadiazol-2-yl)methyl]aminosulfonamide] | 8 | 72 nM |  | 
CS(=O)(=O)C(c1nnc(CC2SC(=O)NC2=O)o1)c1nc2ccc(-c3cnc(OCc4ccccc4)nc3)cc2s1 (stereo not shown) [Example 104, 5-((5-((6-(2-(benzyloxy)-5-pyrimidinyl)-1,3-benzothiazol-2-yl)(methylsulfonyl)methyl)-1,3,4-oxadiazol-2-yl)methyl)-1,3-thiazolidine-2,4-dione] | < 10 | < 10 nM and 11 nM |  | 
COC1CN(C(=O)c2cccc(-c3ccc4nc(C(c5nnc(CC6(C)NC(=O)NC6=O)o5)S(C)(=O)=O)sc4c3)c2)C1 (stereo not shown) [Example 209, 5-({5-[methanesulfonyl({6-[3-(3-methoxyazetidine-1-carbonyl)phenyl]-1,3-benzothiazol-2-yl})methyl]-1,3,4-oxadiazol-2-yl}methyl)-5-methyl-imidazolidine-2,4-dione] | 18 | 227 nM |  | 
CS(=O)(=O)C(c1nnc(CNS(N)(=O)=O)o1)c1nc2ccc(-c3cccc(C(=O)N4CCC(F)(F)CC4)c3)cc2s1 (stereo not shown) [Example 254, N-{[5-({6-[3-(4,4-difluoropiperidine-1-carbonyl)phenyl]-1,3-benzothiazol-2-yl} (methanesulfonyl)methyl)-1,3,4-oxadiazol-2-yl]methyl} aminosulfonamide] | 5 | 17 nM |  | 
C[C@]1(Cc2nnc(C(c3nc4ccc(-c5ccc(C(=O)N6CCOCC6)cc5)cc4s3)S(C)(=O)=O)o2)OC(=O)NC1=O (stereo partly drawn) [Example 109, (5R)-5-methyl-5-((5-((methylsulfonyl)(6-(4-(4-morpholinylcarbonyl)phenyl)-1,3-benzothiazol-2-yl)methyl)-1,3,4-oxadiazol-2-yl)methyl)-1,3-oxazolidine-2,4-dione] | < 10 | 764 nM |  | 
CS(=O)(=O)C(c1nnc(CNS(N)(=O)=O)o1)c1nc2ccc(-c3ccc(O)nc3)cc2s1 (stereo not shown) [Example 133, N-((5-((methylsulfonyl)(6-(6-oxo-1,6-dihydro-3-pyridinyl)-1,3-benzothiazol-2-yl)methyl)-1,3,4-oxadiazol-2-yl)methyl) sulfamide] | 16 | 467 nM |  | 
O=C(NCCS(=O)(=O)C(c1nnc(CC2SC(=O)NC2=O)o1)c1nc2cc(F)c(-c3ccccc3)cc2s1)OCc1ccccc1 (stereo not shown) [Example 167, benzyl (2-(((5-((2,4-dioxo-1,3-thiazolidin-5-yl)methyl)-1,3,4-oxadiazol-2-yl)(5-fluoro-6-phenyl-1,3-benzothiazol-2-yl)methyl)sulfonyl)ethyl)carbamate] | < 10 | < 10 nM |  | 
Cn1cc(-c2cc3sc(C(c4nnc(CNC(=O)OC(C)(C)C)o4)S(=O)(=O)Cc4ccccc4)nc3cc2F)cn1 (stereo not shown) [Example 166, tert butyl ((5-((benzylsulfonyl)(5-fluoro-6-(1-methyl-1H-pyrazol-4-yl)-1,3-benzothiazol-2-yl)methyl)-1,3,4-oxadiazol-2-yl)methyl)carbamate] | 23 | 32 nM |  | 
NS(=O)(=O)NCc1nnc(C(c2nc3ccc(-c4ccc(Cl)c(F)c4)cc3s2)S(=O)(=O)Cc2ccccc2)o1 (stereo not shown) [Example 140, N-((5-((benzylsulfonyl)(6-(4-chloro-3-fluorophenyl)-1,3-benzothiazol-2-yl)methyl)-1,3,4-oxadiazol-2-yl)methy) sulfamide] | < 10 | < 10 nM |  | 
CS(=O)(=O)C(c1nnc(C[C@@H]2NS(=O)(=O)NC2=O)o1)c1nc2ccc(-c3ccc(C(=O)N4CCOCC4)cc3)cc2s1 (stereo partly drawn) [Example 111, (4S)-4-((5-((methylsulfonyl) (6-(4-(4-morpholinylcarbonyl)phenyl)-1,3-benzothiazol-2-yl)methyl)-1,3,4-oxadiazol-2-yl)methyl)-1,2,5-thiadiazolidin-3-one 1,1-dioxide] | < 10 | 629 nM |  | 
CS(=O)(=O)C(c1nnc(CC2SC(=O)NC2=O)o1)c1nc2cc(F)c(-c3ccccc3)cc2s1 (stereo not shown) [Example 160, 5-((5-((5-fluoro-6-phenyl-1,3-benzothiazol-2-yl)(methylsulfonyl)methyl)-1,3,4-oxadiazol-2-yl)methyl)-1,3-thiazolidine-2,4-dione] | < 10 | 13 nM |  | 
CC1(Cc2nnc(C(c3nc4ccc(-c5cccc(C(=O)N6CCC(O)CC6)c5)cc4s3)S(C)(=O)=O)o2)NC(=O)NC1=O (stereo not shown) [Example 212, 5-{[5-({6-[3-(4-hydroxypiperidine-1-carbonyl)phenyl]-1,3-benzothiazol-2-yl} (methanesulfonyl)methyl)-1,3,4-oxadiazol-2-yl]methyl}-5-methyl-imidazolidine-2,4-dione] | 2 | 1100 nM |  | 
NS(=O)(=O)NCc1nnc(C(c2nc3ccc(-c4cccc(C(=O)N5CCC(=O)CC5)c4)cc3s2)S(=O)(=O)CCC(F)(F)F)o1 (stereo not shown) [Example 194, N-((5-((6-(3-((4-oxo-1-piperidinyl)carbonyl)phenyl)-1,3-benzothiazol-2-yl)((3,3,3-trifluoropropyl)sulfonyl)methyl)-1,3,4-oxadiazol-2-yl)methyl) sulfamide] |  |  | < 10 | 171
NS(=O)(=O)NCc1nnc(C(c2nc3ccc(Br)cc3s2)S(=O)(=O)Cc2ccccc2)o1 (stereo not shown) [Example 124, N-((5-((benzylsulfonyl)(6-bromo-1,3-benzothiazol-2-yl)methyl)-1,3,4-oxadiazol-2-yl)methyl)sulfamide] | 48 | 37 nM |  | 
C=CCS(=O)(=O)C(c1nnc(CNS(N)(=O)=O)o1)c1nc2ccc(-c3ccccc3)cc2s1 (stereo not shown) [Example 120, N-((5-((allylsulfonyl)(6-phenyl-1,3-benzothiazol-2-yl)methyl)-1,3,4-oxadiazol-2-yl)methyl)sulfamide] | < 10 | < 10 nM |  | 

Source: US20140011799A1 (Bristol-Myers Squibb Company, priority 2012, published 2014)
